ChEMBL document CHEMBL1128045, “Antifungal lipopeptides: Structure-activity relationships of 3-hydroxyglutamine-modified pneumocandin B0 derivatives” (Bioorg Med Chem Lett, 1995)
In brackets after ≈: the same amount, converted by molar mass. Numbered stars: 1 amine (or outer) side, 2 acyl side, 3 side chain; on linkers, the order of the positions; unused ones are H or OH. Bridge positions count the residues as written; N and C are the ends. Square brackets hold non-standard residues; d marks the D form. Peptide text beside a SMILES is read from it. * marks the point of attachment. Orn(4R-OH,5R-OH) = O=C([C@H](C[C@@H](O)[C@@H](O)N[*:3])N[*:1])[*:2]; hTyr(3S-OH,4S-OH) = N[C@H](C(=O)O)[C@H](O)[C@@H](O)c1ccc(O)cc1; Orn(4R-OH) = O=C([C@H](C[C@@H](O)CN[*:3])N[*:1])[*:2]; X10 = N#CCN(CC#N)CC[C@@H](O)[C@H](N[*:1])C(=O)[*:2]; hTyr(3R-OH) = N[C@H](C(=O)O)[C@H](O)Cc1ccc(O)cc1; X5 = NC(N)=NCC[C@@H](O)[C@H](N[*:1])C(=O)[*:2]; X3 = O=C(C[C@@H](O)[C@H](N[*:1])C(=O)[*:2])NO; X2 = O=C(O)C[C@@H](O)[C@H](N[*:1])C(=O)[*:2]; X4 = N=C(S)C[C@@H](O)[C@H](N[*:1])C(=O)[*:2]; Gln(3R-OH) = NC(=O)C[C@@H](O)[C@H](N)C(=O)O; X13 = CNCC[C@@H](O)[C@H](N[*:1])C(=O)[*:2]; Pro(3S-OH) = O=C(O)[C@H]1NCC[C@@H]1O; Hyp = O=C(O)[C@@H]1C[C@@H](O)CN1; X1 = CCC(C)CC(C)CCCCCCCCC(=O)*

How the values were obtained:
Beta-1,3-glucan synthase = Beta-1,3-glucan synthase (Candida albicans, UniProt O13428); test: Tested for inhibition of Beta-1,3-glucan synthase using a crude membrane of Candida albicans (MY 1208).
Chain of Beta-1,3-glucan synthase (O13428 whole entry): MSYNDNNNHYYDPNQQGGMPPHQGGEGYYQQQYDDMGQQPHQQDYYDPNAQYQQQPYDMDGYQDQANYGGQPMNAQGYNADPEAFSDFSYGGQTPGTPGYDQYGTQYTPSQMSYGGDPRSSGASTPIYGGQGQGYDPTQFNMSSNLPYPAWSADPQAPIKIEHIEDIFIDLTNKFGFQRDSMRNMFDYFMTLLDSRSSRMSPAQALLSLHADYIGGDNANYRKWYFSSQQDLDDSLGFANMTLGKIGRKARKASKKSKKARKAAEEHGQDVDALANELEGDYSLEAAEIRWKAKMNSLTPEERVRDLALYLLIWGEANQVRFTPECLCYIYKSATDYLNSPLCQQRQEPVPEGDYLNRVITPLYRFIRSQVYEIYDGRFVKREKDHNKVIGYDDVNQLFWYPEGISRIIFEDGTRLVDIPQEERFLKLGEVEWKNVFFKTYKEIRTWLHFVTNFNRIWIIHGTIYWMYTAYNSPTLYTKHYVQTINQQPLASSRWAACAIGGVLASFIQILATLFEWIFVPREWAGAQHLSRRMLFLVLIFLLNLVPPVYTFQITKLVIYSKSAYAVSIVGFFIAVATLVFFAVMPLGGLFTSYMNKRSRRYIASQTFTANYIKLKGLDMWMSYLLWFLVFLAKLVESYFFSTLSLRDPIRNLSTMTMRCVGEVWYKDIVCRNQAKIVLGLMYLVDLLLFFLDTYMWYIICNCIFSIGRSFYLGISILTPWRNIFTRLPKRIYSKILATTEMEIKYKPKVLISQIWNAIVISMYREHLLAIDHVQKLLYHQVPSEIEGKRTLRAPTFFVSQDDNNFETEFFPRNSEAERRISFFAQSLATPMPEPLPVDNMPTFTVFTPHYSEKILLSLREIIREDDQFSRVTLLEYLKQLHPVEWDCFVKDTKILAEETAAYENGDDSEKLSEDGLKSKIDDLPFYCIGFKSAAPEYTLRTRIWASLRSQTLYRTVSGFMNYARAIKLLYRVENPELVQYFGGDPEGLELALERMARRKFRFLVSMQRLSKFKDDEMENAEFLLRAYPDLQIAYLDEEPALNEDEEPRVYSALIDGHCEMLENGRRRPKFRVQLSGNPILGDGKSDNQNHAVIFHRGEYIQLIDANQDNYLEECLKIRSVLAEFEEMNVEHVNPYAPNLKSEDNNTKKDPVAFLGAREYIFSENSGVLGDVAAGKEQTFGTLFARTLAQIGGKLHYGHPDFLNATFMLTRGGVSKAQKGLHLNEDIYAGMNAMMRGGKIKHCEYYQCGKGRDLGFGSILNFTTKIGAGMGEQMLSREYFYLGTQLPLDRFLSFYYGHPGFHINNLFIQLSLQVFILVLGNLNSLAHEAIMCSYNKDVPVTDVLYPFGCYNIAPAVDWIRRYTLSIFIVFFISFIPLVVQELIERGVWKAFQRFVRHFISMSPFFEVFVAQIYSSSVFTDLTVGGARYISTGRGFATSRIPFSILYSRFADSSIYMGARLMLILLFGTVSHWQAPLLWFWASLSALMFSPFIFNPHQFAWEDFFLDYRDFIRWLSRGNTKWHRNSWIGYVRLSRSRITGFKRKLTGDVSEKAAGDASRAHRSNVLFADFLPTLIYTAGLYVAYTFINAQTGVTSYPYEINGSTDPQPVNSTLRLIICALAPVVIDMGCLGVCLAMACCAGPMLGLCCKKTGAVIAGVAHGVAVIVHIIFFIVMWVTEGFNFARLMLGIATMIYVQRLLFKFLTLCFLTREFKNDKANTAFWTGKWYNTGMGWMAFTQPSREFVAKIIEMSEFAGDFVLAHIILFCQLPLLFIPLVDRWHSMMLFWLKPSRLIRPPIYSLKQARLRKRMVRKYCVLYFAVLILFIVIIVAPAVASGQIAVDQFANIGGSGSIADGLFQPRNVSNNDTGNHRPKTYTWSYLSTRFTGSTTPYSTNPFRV

Candida parapsilosis = test: In vitro Fungicidal activity (MFC) against Candida parapsilosis (MY 1010).; assay type: functional; conditions: Lodderomyces parapsilosis
Candida albicans = test: In vitro Fungicidal activity (MFC) against Candida albicans (MY 1055).; assay type: functional
[1] = In vivo anti-Candida activity was determined in a mouse model of disseminated candidiasis (TOKA).; assay type: functional

Compound	IC50 (Beta-1,3-glucan synthase)	MFC (Candida parapsilosis)	MFC (Candida albicans)	ED99.9 [1]
CCC(C)CC(C)CCCCCCCCC(=O)N[C@H]1C[C@@H](O)CNC(=O)[C@@H]2[C@@H](O)CCN2C(=O)[C@H]([C@H](O)CC(=O)O)NC(=O)[C@H]([C@H](O)Cc2ccc(O)cc2)NC(=O)[C@@H]2C[C@@H](O)CN2C(=O)[C@H]([C@@H](C)O)NC1=O (stereo partly drawn) (X1-[Orn(4R-OH)]T[Hyp][hTyr(3R-OH)][X2][Pro(3S-OH)]; lactam 1-C)	400 nM	8 µg/mL (≈ 7.74 µM)	0.25 µg/mL (≈ 0.242 µM)	>6 mg/kg
CCC(C)CC(C)CCCCCCCCC(=O)N[C@H]1C[C@@H](O)[C@@H](O)NC(=O)[C@@H]2[C@@H](O)CCN2C(=O)[C@H]([C@H](O)CCN=C(N)N)NC(=O)[C@H]([C@H](O)[C@@H](O)c2ccc(O)cc2)NC(=O)[C@@H]2C[C@@H](O)CN2C(=O)[C@H]([C@@H](C)O)NC1=O (stereo partly drawn) (X1-[Orn(4R-OH,5R-OH)]T[Hyp][hTyr(3S-OH,4S-OH)][X5][Pro(3S-OH)]; lactam 1-C)	7 nM	0.5 µg/mL (≈ 0.457 µM)	< 0.06 µg/mL	1.5 mg/kg
CCC(C)CC(C)CCCCCCCCC(=O)N[C@H]1C[C@@H](O)[C@@H](O)NC(=O)[C@@H]2[C@@H](O)CCN2C(=O)[C@H]([C@H](O)CCNC)NC(=O)[C@H]([C@H](O)[C@@H](O)c2ccc(O)cc2)NC(=O)[C@@H]2C[C@@H](O)CN2C(=O)[C@H]([C@@H](C)O)NC1=O (stereo partly drawn) (X1-[Orn(4R-OH,5R-OH)]T[Hyp][hTyr(3S-OH,4S-OH)][X13][Pro(3S-OH)]; lactam 1-C)	7 nM	2 µg/mL (≈ 1.88 µM)	2 µg/mL (≈ 1.88 µM)	0.375 mg/kg
CCC(C)CC(C)CCCCCCCCC(=O)N[C@H]1C[C@@H](O)CNC(=O)[C@@H]2[C@@H](O)CCN2C(=O)[C@H]([C@H](O)CC(=N)S)NC(=O)[C@H]([C@H](O)Cc2ccc(O)cc2)NC(=O)[C@@H]2C[C@@H](O)CN2C(=O)[C@H]([C@@H](C)O)NC1=O (stereo partly drawn) (X1-[Orn(4R-OH)]T[Hyp][hTyr(3R-OH)][X4][Pro(3S-OH)]; lactam 1-C)	120 nM	4 µg/mL (≈ 3.81 µM)	0.25 µg/mL (≈ 0.238 µM)	>6 mg/kg
CCC(C)CC(C)CCCCCCCCC(=O)N[C@H]1C[C@@H](O)CNC(=O)[C@@H]2[C@@H](O)CCN2C(=O)[C@H]([C@H](O)CC(N)=O)NC(=O)[C@H]([C@H](O)Cc2ccc(O)cc2)NC(=O)[C@@H]2C[C@@H](O)CN2C(=O)[C@H]([C@@H](C)O)NC1=O (stereo partly drawn) (X1-[Orn(4R-OH)]T[Hyp][hTyr(3R-OH)][Gln(3R-OH)][Pro(3S-OH)]; lactam 1-C)	70 nM	2 µg/mL (≈ 1.94 µM)	0.25 µg/mL (≈ 0.242 µM)	>6 mg/kg
CCC(C)CC(C)CCCCCCCCC(=O)N[C@H]1C[C@@H](O)[C@@H](O)NC(=O)[C@@H]2[C@@H](O)CCN2C(=O)[C@H]([C@H](O)CCN(CC#N)CC#N)NC(=O)[C@H]([C@H](O)[C@@H](O)c2ccc(O)cc2)NC(=O)[C@@H]2C[C@@H](O)CN2C(=O)[C@H]([C@@H](C)O)NC1=O (stereo partly drawn) (X1-[Orn(4R-OH,5R-OH)]T[Hyp][hTyr(3S-OH,4S-OH)][X10][Pro(3S-OH)]; lactam 1-C)	> 200 nM	8 µg/mL (≈ 7.08 µM)	4 µg/mL (≈ 3.54 µM)	>1.5 mg/kg
CCC(C)CC(C)CCCCCCCCC(=O)N[C@H]1C[C@@H](O)CNC(=O)[C@@H]2[C@@H](O)CCN2C(=O)[C@H]([C@H](O)CC(=O)NO)NC(=O)[C@H]([C@H](O)Cc2ccc(O)cc2)NC(=O)[C@@H]2C[C@@H](O)CN2C(=O)[C@H]([C@@H](C)O)NC1=O (stereo partly drawn) (X1-[Orn(4R-OH)]T[Hyp][hTyr(3R-OH)][X3][Pro(3S-OH)]; lactam 1-C)	80 nM	4 µg/mL (≈ 3.81 µM)	0.25 µg/mL (≈ 0.238 µM)	6 mg/kg
